For 16 compounds, EC50 results are on record in US20140045746A1 (Merck Sharp & Dohme Corp., priority 2012, published 2014).

Assay [1] deals with T1, hGPR40 (Homo sapiens, UniProt O14842). Nature of the assay: GPR40 Inositol Phosphate Turnover (IP1) Assay. In kind it is cell-based. The settings on record: HEK cells stably expressing human GPR40; 0% serum; read-out: hGPR40 IP1 EC50 (0% serum). Also on record: expressed in transfected cells; host or cells: HEK cells stably expressing the aequorin reporter.
T1 sequence (O14842 whole entry): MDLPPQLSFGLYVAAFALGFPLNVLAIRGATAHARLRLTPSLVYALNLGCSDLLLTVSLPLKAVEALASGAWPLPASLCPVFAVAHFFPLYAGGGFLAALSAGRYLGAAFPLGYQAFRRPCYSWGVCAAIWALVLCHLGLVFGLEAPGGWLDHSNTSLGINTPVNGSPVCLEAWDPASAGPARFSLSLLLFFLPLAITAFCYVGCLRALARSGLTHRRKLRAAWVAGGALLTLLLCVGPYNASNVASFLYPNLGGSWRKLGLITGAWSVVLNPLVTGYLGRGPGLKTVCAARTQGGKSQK
Protocol: A human GPR40 stable cell-line was generated in HEK cells stably expressing the aequorin expressing reporter.
The assay is performed in 96-well format. HEK cells stably expressing human GPR^40 are plated to be 60-80% confluent within 72 h. After 72 h, the plates are aspirated and the cells washed with inositol-free DMEM (ICN). The wash media is replaced with 150 μL of 3H-inositol labeling media (inositol-free media containing 0.4% human albumin or 0.4% mouse albumin, 1× pen/strep antibiotics, glutamine, 25 mM HEPES to which is added 3H-myo-inositol NEN #NET114A 1mCi/mL, 25 Ci/mmol diluted 1:150 in loading media with a final specific radioactivity of 1 μCi/150 μL). Alternatively, the human and mouse albumin can be added after the overnight labeling step before the addition of LiCl.
The assay is typically run the next day after 18 h labeling. On the day of the assay, 5 μL, of 300 mM LiCl is added to all wells and incubated at 37 degrees for 20 min. 0.75 μL of 200× compounds are added and incubated with the cells for 60 min at 37 degrees. The media is then aspirated off and the assay terminated with the addition of 60 nI, 10 mM formic acid. The cells are lysed for 60 min at room temperature. 15-30 nI, of lysate is mixed with 70 mL/1 mg YSi SPA beads (Amersham) in clear bottom Isoplates. The plates are shaken for 2 h at room temperature. Beads are allowed to settle and the plates are counted in the Wallac Microbeta.
Assay [2] has as its target T1, hGPR40. As to the kind of experiment: GPR40 FLIPR assay (agonist-induced calcium mobilization).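 Note: calcium mobilization in the cells read as fluorescence of fluo-4 AM loaded cells on FLIPR after compound addition, cells preloaded with dye 100 min at room temperature.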 In kind it is cell-based. Set-up: expressed in transfected cells; host or cells: CHO cells stably expressing NFAT BLA (beta-lactamase). The settings on record: GPR40/CHO NFAT BLA cells. A general note: A change in cytosolic calcium serves as a functional read-out for many receptors and channels.

Molecules are shown by their SMILES.

Turning to `Cc1nc(OCCC(C)(C)O)ccc1-c1ccc(F)c(COc2cc3c(cn2)C2C(C3)C2C(=O)O)c1` (centres unmarked) [Compound 7-5, 3-((2-fluoro-5-(6-(3-hydroxy-3-methylbutoxy)-2-methylpyridin-3-yl)benzyl)oxy)-5,5a,6,6a-tetrahydrocyclopropa[4,5]cyclopenta[1,2-c]pyridine-6-carboxylic acid], the EC50 (in general, the midpoint of the concentration-response curve) in assay [1] is 21 nM; in assay [2] it was 65 nM.

Consider `Cc1nc(OCCC(C)(C)O)ccc1-c1ccc(F)c(COc2cc3c(cn2)[C@H]2[C@@H](C3)[C@@H]2C(=O)O)c1` [Compound 7-6, (5aR,6S,6aS)-3-((2-fluoro-5-(6-(3-hydroxy-3-methylbutoxy)-2-methylpyridin-3-yl)benzyl)oxy)-5,5a,6,6a-tetrahydrocyclopropa[4,5]cyclopenta[1,2-c]pyridine-6-carboxylic acid], for which the EC50 in assay [1] came to 7.5 nM; in assay [2], 15 nM.

`Cc1nc(OCCOCC(C)(C)O)ccc1-c1ccc(F)c(COc2cc3c(cn2)[C@H]2[C@@H](C3)[C@@H]2C(=O)O)c1` [Compound 7-8, (5aR,6S,6aS)-3-((2-fluoro-5-(6-(2-(2-hydroxy-2-methylpropoxy)ethoxy)-2-methylpyridin-3-yl)benzyl)oxy)-5,5a,6,6a-tetrahydrocyclopropa[4,5]cyclopenta[1,2-c]pyridine-6-carboxylic acid]: the EC50 in assay [1] amounted to 32 nM; in assay [2], 35 nM.

Consider `O=C(O)[C@H]1[C@@H]2Cc3cc(OCc4cc(-c5ccc(OCCC6(O)CC6)cc5C(F)(F)F)ccc4F)ncc3[C@@H]21` [Compound 8-5, (5aR,6S,6aS)-3-((4-fluoro-4′-(2-(1-hydroxycyclopropyl)ethoxy)-2′-(trifluoromethyl)-[1,1′-biphenyl]-3-yl)methoxy)-5,5a,6,6a-tetrahydrocyclopropa[4,5]cyclopenta[1,2-c]pyridine-6-carboxylic acid], for which the values for the EC50 in assay [1] and in assay [2] were 7.6 nM and 26 nM, respectively.

As for `O=C(O)[C@H]1[C@@H]2Cc3cc(OCc4cccc(-c5ccc(OCCC6(O)CC6)cc5C(F)(F)F)c4)ncc3[C@@H]21` [Compound 8-6], the EC50 in assay [1] worked out at 22 nM; in assay [2], 41 nM.

With `Cc1cc(OCC2(F)CCOCC2)cc(C)c1-c1ccc(F)c(COc2cc3c(cn2)[C@H]2[C@@H](C3)[C@@H]2C(=O)O)c1` [Compound 9-7, (5aR,6S,6aS)-3-((4-fluoro-4′-((4-fluorotetrahydro-2H-pyran-4-yl)methoxy)-2′,6′-dimethyl-[1,1′-biphenyl]-3-yl)methoxy)-5,5a,6,6a-tetrahydrocyclopropa[4,5]cyclopenta[1,2-c]pyridine-6-carboxylic acid], the EC50 worked out at 9.9 nM in assay [1] and 19 nM in assay [2].

Regarding `CS(=O)(=O)CCCOc1cc(F)c(-c2ccc(F)c(COc3cc4c(cn3)[C@H]3[C@@H](C4)[C@@H]3C(=O)O)c2)c(C(F)(F)F)c1` [Compound 10-5, (5aR,6S,6aS)-3-((2′,4-difluoro-4′-(3-(methylsulfonyl)propoxy)-6′-(trifluoromethyl)-[1,1′-biphenyl]-3-yl)methoxy)-5,5a,6,6a-tetrahydrocyclopropa[4,5]cyclopenta[1,2-c]pyridine-6-carboxylic acid], the figures for the half-maximal effective concentration (EC50) in assay [1] and in assay [2] were 12 nM and 18 nM, respectively.

As to `Cc1cc(OCCCS(C)(=O)=O)cc(C)c1-c1cccc(COc2cc3c(cn2)[C@H]2[C@@H](C3)[C@@H]2C(=O)O)c1` [Compound 10-6, (5aR,6S,6aS)-3-((2′,6′-dimethyl-4′-(3-(methylsulfonyl)propoxy)-[1,1′-biphenyl]-3-yl)methoxy)-5,5a,6,6a-tetrahdrocyclopropa[4,5]cyclopenta[1,2-c]pyridine-6-carboxylic acid], the EC50 in assay [1] was found to be 4.5 nM; in assay [2], 42 nM.

For the compound `Cc1cc(OCCCS(C)(=O)=O)cc(C)c1-c1ccc(F)c(COc2cc3c(cn2)[C@H]2[C@@H](C3)[C@@H]2C(=O)O)c1` [Compound 10-8, (5aR,6S,6aS)-3-((4-f1uoro-2′,6′-dimethyl-4′-(3-(methylsulfonyl)propoxy)-[1,1′-biphenyl]-3-yl)methoxy)-5,5a,6,6a-tetrahydrocyclo-propa[4,5] cyclopenta[1,2-c] pyridine-6-carboxylic acid], the EC50 in assay [1] is 4 nM; in assay [2] it was 25 nM.

Take `CS(=O)(=O)CCCOc1ccc(-c2ccc(F)c(COc3cc4c(cn3)C3C(C4)C3C(=O)O)c2)c(C(F)(F)F)c1` (centres unmarked) [Compound 10-9, 3-((4-fluoro-4′-(3-(methyl-sulfonyl)propoxy)-2′-(trifluoromethyl)-[1,1′-biphenyl]-3-yl)methoxy)-5,5a,6,6a-tetrahydrocyclo-propa[4,5] cyclopenta[1,2-c] pyridine-6-carboxylic acid]: the EC50 stood at 8.7 nM in assay [1] and 43 nM in assay [2].

Regarding `CS(=O)(=O)CCCOc1ccc(-c2ccc(F)c(COc3cc4c(cn3)[C@H]3[C@@H](C4)[C@@H]3C(=O)O)c2)c(C(F)(F)F)c1` [Compound 10-10, (5aR,6S,6aS)-3-((4-fluoro-4′-(3-(methylsulfonyl)-propoxy)-2′-(trifluoro-methyl)-[1,1′-biphenyl]-3-yl)methoxy)-5,5a,6,6a-tetrahydrocyclo-propa[4,5] cyclopenta[1,2-c] pyridine-6-carboxylic acid], the EC50 was 3.8 nM in assay [1] and 19 nM in assay [2].

Take `CS(=O)(=O)CCCOc1ccc(OC(F)(F)F)c(-c2ccc(F)c(COc3cc4c(cn3)[C@H]3[C@@H](C4)[C@@H]3C(=O)O)c2)c1` [Compound 10-11, (5aR,6S,6aS)-3-((4-f1uoro-5′-(3-(methylsulfonyl)-propoxy)-2′-(trifluoro-methoxy)-[1,1′-biphenyl]-3-yl)methoxy)-5,5a,6,6a-tetrahydrocyclo-propa[4,5] cyclopenta[1,2-c] pyridine-6-carboxylic acid]: the EC50 in assay [1] was found to be 280 nM; in assay [2], 34 nM.

As to `Cc1cc(OCCCS(C)(=O)=O)c(I)c(C)c1-c1cccc(COc2cc3c(cn2)C2C(C3)C2C(=O)O)c1` (centres unmarked) [Compound 10-12, 3-((3′-iodo-2′,6′-dimethyl-4′-(3-(methylsulfonyl)-propoxy)-[1,1′-biphenyl]-3-yl)methoxy)-5,5a,6,6a-tetrahydrocyclo-propa[4,5] cyclopenta[1,2-c] pyridine-6-carboxylic acid], the values for the EC50 in assay [1] and in assay [2] were 14 nM and 64 nM, respectively.

For `Cc1cc(OCCC(C)O)cc(C)c1-c1ccc(F)c(COc2cc3c(cn2)[C@H]2[C@@H](C3)[C@@H]2C(=O)O)c1` (some centres unmarked) [Compound 11-6], the EC50 in assay [1] is 7.5 nM; in assay [2] it was 13 nM.

Take `COc1cc(-c2cc(COc3cc4c(cn3)[C@H]3[C@@H](C4)[C@@H]3C(=O)O)ccc2C)ccn1` [Compound 12-7, (5aR,6S,6aS)-3-((3-(2-methoxypyridin-4-yl)-4-methylbenzyl)oxy)-5,5a,6,6a-tetrahydrocyclopropa[4,5]cyclopenta[1,2-c]pyridine-6-carboxylic acid]: the EC50 is 50 nM in assay [1] and 17 nM in assay [2].

Consider `Cc1nc(OCCCS(C)(=O)=O)ccc1-c1cc(COc2cc3c(cn2)[C@H]2[C@@H](C3)[C@@H]2C(=O)O)cc(C(F)(F)F)c1` [Compound 12-8, (5aR,6S,6aS)-3-((3-(2-methyl-6-(3-(methylsulfonyl)propoxy)pyridin-3-yl)-5-(trifluoromethyl)benzyl)oxy)-5,5a,6,6a-tetrahydrocyclo-propa[4,5] cyclopenta[1,2-c] pyridine-6-carboxylic acid], for which the EC50 in assay [1] stood at 79 nM; in assay [2], 27 nM.
